Tests used:
RLuc8 [1] = molecular target: T1, RLuc8 (Renilla reniformis, UniProt P27652, A143M/A55T/C124A/K136R/M185V/M253L/S130A/S287L); assay type: biochemical; settings: bioluminescence spectrum, ATTO LumiFL
T1 construct: expressed in transfected cells; host or cells: COST cells (so in the source)
Description: (§1) As in the method for measuring bioluminescence intensity described above, luminescence spectrum was measured according to the protocol of Renilla Luciferase Assay System (Cat. No. E 2810; Promega). The luminescence spectrum was measured using ATTO LumiFL. The maximum luminescence intensities were normalized to be relative values to 1.0 upon determination of the maximum luminescence wavelength.

RLuc8.6-535 [2] = molecular target: T2, RLuc8.6-535 (Renilla reniformis, UniProt P27652, A123S/A143M/A55T/C124A/D154M/D162E/E155G/I163L/K136R/M185L/M253L/S130A/S287L); assay type: biochemical; design: expressed in transfected cells; host or cells: COST cells (so in the source); settings: 2 μM substrate in PBS pH 7.4, cell lysate, maximum intensity over 1 second, relative value
Excerpt: (§2) The luciferases were respectively expressed in COST cells using an expression vector (pcDNA3.1(+), commercially available from Invitrogen) comprising the sequence encoding native Renilla Luciferase (RLuc) (trade name pGL4.75, commercially available from Promega) or an expression vector (trade name pcDNA3.1(+), commercially available from Invitrogen) comprising the sequence encoding a RLuc derivative RLuc8 or RLuc8.6-535 (Reference: Loening, A. M. et al., Nat. Methods, 2007, 4, 641-643.). The cells were lysed using a Renilla Luciferase Lysis Buffer (E291A, Promega), and the lysate was directly used as an enzyme solution. […] Bioluminescence was measured according to the protocol of Renilla Luciferase Assay System (Cat. No. E 2810; Promega). The luminescent substrate was dissolved in methanol to prepare a 2 mM solution. The solution was diluted to 2 μM with PBS buffer (pH 7.4), and the diluted solution was used as a substrate solution. To 200 μL of the substrate solution, 4 μL of the cell lysate containing RLuc, RLuc 8 or RLuc8.6-535 was added to start the luminescent reaction. The luminescence intensity was measured with a Berthold Lumat LB 9507 for 1 second, and indicated by the maximum luminescence intensity (I). The luminescence intensity of the native CTZ by RLuc8 was set to be 1.0, and the other bioluminescence intensities were normalized to be relative values to that of native CTZ.

RLuc8.6-535 [3] = molecular target: T2, RLuc8.6-535; assay type: biochemical; design: expressed in transfected cells; host or cells: COST cells (so in the source); settings: bioluminescence spectrum, ATTO LumiFL
Description: as §1

RLuc8 [4] = molecular target: T1, RLuc8; assay type: biochemical; settings: 2 μM substrate in PBS pH 7.4, cell lysate, maximum intensity over 1 second, relative value
Excerpt: as §2

[5] = molecular target: T3, Renilla Luciferase (RLuc) (Renilla reniformis, UniProt P27652); settings: cited from earlier work
T3 sequence (P27652 1-311): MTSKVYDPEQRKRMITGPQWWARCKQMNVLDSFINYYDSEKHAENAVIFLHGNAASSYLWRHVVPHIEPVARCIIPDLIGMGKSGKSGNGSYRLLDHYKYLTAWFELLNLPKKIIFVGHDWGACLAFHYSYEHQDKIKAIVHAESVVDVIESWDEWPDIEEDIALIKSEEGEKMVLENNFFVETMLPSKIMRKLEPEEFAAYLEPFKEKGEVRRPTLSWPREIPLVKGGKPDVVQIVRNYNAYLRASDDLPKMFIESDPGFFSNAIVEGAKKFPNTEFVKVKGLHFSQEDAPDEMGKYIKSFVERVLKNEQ

T1 sequence (P27652 whole entry A55T/C124A/S130A/K136R/A143M/M185V/M253L/S287L): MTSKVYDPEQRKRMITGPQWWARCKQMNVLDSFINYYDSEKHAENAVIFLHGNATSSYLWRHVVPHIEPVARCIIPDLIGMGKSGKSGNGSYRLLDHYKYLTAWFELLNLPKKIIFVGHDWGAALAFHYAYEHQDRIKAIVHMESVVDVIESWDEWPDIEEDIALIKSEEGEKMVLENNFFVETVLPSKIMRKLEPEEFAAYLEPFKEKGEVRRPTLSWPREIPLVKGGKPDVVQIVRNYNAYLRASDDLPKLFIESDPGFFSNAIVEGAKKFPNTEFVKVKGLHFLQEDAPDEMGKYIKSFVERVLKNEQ
T2 sequence (P27652 whole entry A55T/A123S/C124A/S130A/K136R/A143M/D154M/E155G/D162E/I163L/M185L/M253L/S287L): as the sequence (P27652 whole entry A55T/C124A/S130A/K136R/A143M/M185V/M253L/S287L) above, with A123S, D154M, E155G, D162E, I163L, V185L counted along it

## O=c1c(Cc2ccccc2)nc2c(Cc3ccccc3)[nH]c(-c3ccc(OCCO)cc3)cn1-2 [6-Alkyl2OH-2H-CTZ]
RLuc8 [1]
  RLuc8 half-width (nm): [65] nm
  RLuc8 maximum luminescence wavelength (nm): 413 nm
RLuc8.6-535 [2]
  RLuc8.6-535 luminescence intensity (%): 6.24%
RLuc8.6-535 [3]
  RLuc8.6-535 half-width (nm): [68] nm
  RLuc8.6-535 maximum luminescence wavelength (nm): 407 nm
RLuc8 [4]
  RLuc8 luminescence intensity (%): 6.21%

## O=c1c(Cc2ccc(O)cc2)nc2c(Cc3ccccc3)[nH]c(-c3ccc(OCCO)cc3)cn1-2 [6-Alkyl2OH-CTZ]
RLuc8 [1]
  RLuc8 half-width (nm): [59] nm
  RLuc8 maximum luminescence wavelength (nm): 411 nm
RLuc8.6-535 [2]
  RLuc8.6-535 luminescence intensity (%): 43.2%
RLuc8.6-535 [3]
  RLuc8.6-535 half-width (nm): [56] nm
  RLuc8.6-535 maximum luminescence wavelength (nm): 411 nm
RLuc8 [4]
  RLuc8 luminescence intensity (%): 15.0%

## CCCCOc1ccc(-c2cn3c(=O)c(Cc4ccccc4)nc-3c(Cc3ccccc3)[nH]2)cc1 [6-Alkyl3-2H-CTZ]
RLuc8 [1]
  RLuc8 half-width (nm): [50] nm
  RLuc8 maximum luminescence wavelength (nm): 411 nm
RLuc8.6-535 [2]
  RLuc8.6-535 luminescence intensity (%): 28.4%
RLuc8.6-535 [3]
  RLuc8.6-535 half-width (nm): [53] nm
  RLuc8.6-535 maximum luminescence wavelength (nm): 413 nm
RLuc8 [4]
  RLuc8 luminescence intensity (%): 2.00%

## O=c1c(Cc2ccccc2)nc2c(Cc3ccccc3)[nH]c(-c3ccc(OCCCO)cc3)cn1-2 [6-Alkyl3OH-2H-CTZ]
RLuc8 [1]
  RLuc8 half-width (nm): [65] nm
  RLuc8 maximum luminescence wavelength (nm): 411 nm
RLuc8.6-535 [2]
  RLuc8.6-535 luminescence intensity (%): 23.9%
RLuc8.6-535 [3]
  RLuc8.6-535 half-width (nm): [56] nm
  RLuc8.6-535 maximum luminescence wavelength (nm): 413 nm
RLuc8 [4]
  RLuc8 luminescence intensity (%): 5.03%

## COCCCOc1ccc(-c2cn3c(=O)c(Cc4ccccc4)nc-3c(Cc3ccccc3)[nH]2)cc1 [6-Alkyl3OMe-2H-CTZ]
RLuc8 [1]
  RLuc8 half-width (nm): [49] nm
  RLuc8 maximum luminescence wavelength (nm): 416 nm
RLuc8.6-535 [2]
  RLuc8.6-535 luminescence intensity (%): 29.3%
RLuc8.6-535 [3]
  RLuc8.6-535 half-width (nm): [53] nm
  RLuc8.6-535 maximum luminescence wavelength (nm): 413 nm
RLuc8 [4]
  RLuc8 luminescence intensity (%): 2.93%

## O=c1c(Cc2ccccc2)nc2c(Cc3ccccc3)[nH]c(-c3ccc(OCCCCO)cc3)cn1-2 [6-Alkyl4OH-2H-CTZ]
RLuc8 [1]
  RLuc8 half-width (nm): [69] nm
  RLuc8 maximum luminescence wavelength (nm): 404 nm
RLuc8.6-535 [2]
  RLuc8.6-535 luminescence intensity (%): 23.9%
RLuc8.6-535 [3]
  RLuc8.6-535 half-width (nm): [68] nm
  RLuc8.6-535 maximum luminescence wavelength (nm): 405 nm
RLuc8 [4]
  RLuc8 luminescence intensity (%): 3.45%

## O=c1c(Cc2ccc(O)cc2)nc2c(Cc3ccccc3)[nH]c(-c3ccc(OCCCCO)cc3)cn1-2 [6-Alkyl4OH-CTZ]
RLuc8 [1]
  RLuc8 half-width (nm): [69] nm
  RLuc8 maximum luminescence wavelength (nm): 404 nm
RLuc8.6-535 [2]
  RLuc8.6-535 luminescence intensity (%): 59.8%
RLuc8.6-535 [3]
  RLuc8.6-535 half-width (nm): [60] nm
  RLuc8.6-535 maximum luminescence wavelength (nm): 412 nm
RLuc8 [4]
  RLuc8 luminescence intensity (%): 11.8%

## O=c1c(Cc2ccccc2)nc2c(Cc3ccccc3)[nH]c(-c3ccc(OCCCCCO)cc3)cn1-2 [6-Alkyl5OH-2H-CTZ]
RLuc8 [1]
  RLuc8 half-width (nm): [70] nm
  RLuc8 maximum luminescence wavelength (nm): 403 nm
RLuc8.6-535 [2]
  RLuc8.6-535 luminescence intensity (%): 18.0%
RLuc8.6-535 [3]
  RLuc8.6-535 half-width (nm): [68] nm
  RLuc8.6-535 maximum luminescence wavelength (nm): 406 nm
RLuc8 [4]
  RLuc8 luminescence intensity (%): 2.88%

## COCc1ccc(-c2cn3c(=O)c(Cc4ccccc4)nc-3c(Cc3ccccc3)[nH]2)cc1 [6-Ether-2H-CTZ, reference compound]
RLuc8 [1]
  RLuc8 maximum luminescence wavelength (nm): (393) nm
RLuc8.6-535 [2]
  RLuc8.6-535 luminescence intensity (%): 2.17%
RLuc8.6-535 [3]
  RLuc8.6-535 half-width (nm): [53] nm
  RLuc8.6-535 maximum luminescence wavelength (nm): 406 nm
RLuc8 [4]
  RLuc8 luminescence intensity (%): 0.36%

## CCc1ccc(-c2cn3c(=O)c(Cc4ccccc4)nc-3c(Cc3ccccc3)[nH]2)cc1 [6-Ethyl-2H-CTZ]
RLuc8 [1]
  RLuc8 maximum luminescence wavelength (nm): (402) nm
RLuc8.6-535 [2]
  RLuc8.6-535 luminescence intensity (%): 18.0%
RLuc8.6-535 [3]
  RLuc8.6-535 half-width (nm): [50] nm
  RLuc8.6-535 maximum luminescence wavelength (nm): 411 nm
RLuc8 [4]
  RLuc8 luminescence intensity (%): 0.62%

## Cc1ccc(-c2cn3c(=O)c(Cc4ccccc4)nc-3c(Cc3ccccc3)[nH]2)cc1 [6-Methyl-2H-CTZ]
RLuc8 [1]
  RLuc8 half-width (nm): [45] nm
  RLuc8 maximum luminescence wavelength (nm): 408 nm
RLuc8.6-535 [2]
  RLuc8.6-535 luminescence intensity (%): 25.3%
RLuc8.6-535 [3]
  RLuc8.6-535 half-width (nm): [49] nm
  RLuc8.6-535 maximum luminescence wavelength (nm): 411 nm
RLuc8 [4]
  RLuc8 luminescence intensity (%): 1.44%

## O=c1c(Cc2ccccc2)nc2c(Cc3ccccc3)[nH]c(-c3ccccc3)cn1-2 [DeepBlueC (trade name), reference compound]
RLuc8 [1]
  RLuc8 half-width (nm): [57] nm
  RLuc8 maximum luminescence wavelength (nm): 416 nm
RLuc8.6-535 [2]
  RLuc8.6-535 luminescence intensity (%): 5.80%
[5]
  luminescence intensity relative to the native RLuc luminescence system: about 4%
  shift of luminescence wavelength to the shorter wavelength side compared to native CTZ: about 80 nm
[5]; emits light at around
  luminescence wavelength: around 400 nm
RLuc8.6-535 [3]
  RLuc8.6-535 half-width (nm): [51] nm
  RLuc8.6-535 maximum luminescence wavelength (nm): 410 nm
RLuc8 [4]
  RLuc8 luminescence intensity (%): 2.30%

## CCCCOc1ccc(-c2cn3c(=O)c(Cc4ccc(O)cc4)nc-3c(Cc3ccccc3)[nH]2)cc1 [Example 6-Alkyl3-CTZ]
RLuc8 [1]
  RLuc8 half-width (nm): [46] nm
  RLuc8 maximum luminescence wavelength (nm): (413) nm
RLuc8.6-535 [2]
  RLuc8.6-535 luminescence intensity (%): 39.6%
RLuc8.6-535 [3]
  RLuc8.6-535 half-width (nm): [60] nm
  RLuc8.6-535 maximum luminescence wavelength (nm): 412 nm
RLuc8 [4]
  RLuc8 luminescence intensity (%): 8.07%

## COCc1ccc(-c2cn3c(=O)c(Cc4ccc(O)cc4)nc-3c(Cc3ccccc3)[nH]2)cc1 [Example 6-Ether-CTZ, reference compound]
RLuc8 [1]
  RLuc8 maximum luminescence wavelength (nm): (420) nm
RLuc8.6-535 [2]
  RLuc8.6-535 luminescence intensity (%): 8.94%
RLuc8.6-535 [3]
  RLuc8.6-535 half-width (nm): [49] nm
  RLuc8.6-535 maximum luminescence wavelength (nm): 411 nm
RLuc8 [4]
  RLuc8 luminescence intensity (%): 0.85%

## CCc1ccc(-c2cn3c(=O)c(Cc4ccc(O)cc4)nc-3c(Cc3ccccc3)[nH]2)cc1 [Example 6-Ethyl-CTZ]
RLuc8 [1]
  RLuc8 maximum luminescence wavelength (nm): (410) nm
RLuc8.6-535 [2]
  RLuc8.6-535 luminescence intensity (%): 29.4%
RLuc8.6-535 [3]
  RLuc8.6-535 half-width (nm): [60] nm
  RLuc8.6-535 maximum luminescence wavelength (nm): 406 nm
RLuc8 [4]
  RLuc8 luminescence intensity (%): 2.68%
